From patent US4563472A, “Iodoallyl and iodopropargyl substituted tetrazoles and anti-microbial compositions thereof” (Meiji Seika Kaisha, Ltd., priority 1982, dated 1986)
≈ marks a conversion by molar mass, not a printed value.

Experiments:
[1] = test system: Staphylococcus epidermidis ATCC 14990; experiment: Antibacterial Activity (in medicinal field), MIC; format: cell-based; conditions: Staphylococcus epidermidis, ATCC14990, read-out: Minimal Inhibitory Conc. (MIC)
Gibberella fujikuroi = experiment: Antibacterial and Antifungal Activities (in Agricultural Field), MIC; format: cell-based; conditions: Fusarium fujikuroi, read-out: Minimal Inhibitory Conc. (MIC)
[2] = test system: Pseudomonas cepacia M-0527; experiment: Antibacterial Activity (in medicinal field), MIC; format: cell-based; conditions: Burkholderia cepacia, M0527, read-out: Minimal Inhibitory Conc. (MIC)
Botrytis cinerea = experiment: Antibacterial and Antifungal Activities (in Agricultural Field), MIC; format: cell-based; conditions: read-out: Minimal Inhibitory Conc. (MIC)
[3] = test system: Trichophyton interdigitale; experiment: Antifungal Activity (in Medicinal Field), MIC; format: cell-based; conditions: read-out: Minimal Inhibitory Conc. (MIC)
[4] = test system: Trichophyton mentagrophytes; experiment: Therapeutic experiment on trichophytosis in guinea pigs, visual observation; format: in vivo, guinea pigs (White Hartly-strain); conditions: 1% preparation, 0.25 ml once per day, 8 consecutive days
[5] = test system: Corynebacterium michiganense; experiment: Antibacterial and Antifungal Activities (in Agricultural Field), MIC; format: cell-based; conditions: Clavibacter michiganensis, read-out: Minimal Inhibitory Conc. (MIC)
[6] = test system: Xanthomonas campestris pv. oryzae; experiment: microbe, parasite or virus in culture; format: cell-based; conditions: read-out: Minimal Inhibitory Conc. (MIC)
[7] = test system: Aspergillus flavus ATCC 6275; experiment: Antifungal Activity (in Industrial Field), MIC; format: cell-based; conditions: ATCC6275, read-out: Minimal Inhibitory Conc. (MIC)
[8] = test system: Pullularia pullulans IAM F-24; experiment: Antifungal Activity (in Industrial Field), MIC; format: cell-based; conditions: IAMF24; Pullularia pullulans IAM F-24; read-out: Minimal Inhibitory Conc. (MIC)
[9] = test system: Chaetomium globosum ATCC 6205; experiment: Antifungal Activity (in Industrial Field), MIC; format: cell-based; conditions: ATCC6205, read-out: Minimal Inhibitory Conc. (MIC)
[10] = test system: Fusarium oxysporum f. lycopersici; experiment: Antibacterial and Antifungal Activities (in Agricultural Field), MIC; format: cell-based; conditions: read-out: Minimal Inhibitory Conc. (MIC)
[11] = test system: Staphylococcus faecalis ATCC 8043; experiment: Antibacterial Activity (in medicinal field), MIC; format: cell-based; conditions: ATCC8043, read-out: Minimal Inhibitory Conc. (MIC)
Cochliobolus miyabeanus = experiment: Antibacterial and Antifungal Activities (in Agricultural Field), MIC; format: cell-based; conditions: Bipolaris oryzae, read-out: Minimal Inhibitory Conc. (MIC)
[12] = test system: Aspergillus fumigatus Saito; experiment: Antifungal Activity (in Medicinal Field), MIC; format: cell-based; conditions: read-out: Minimal Inhibitory Conc. (MIC)
[13] = test system: Trichophyton mentagrophytes; experiment: Reducing culture positive rate of skin slices from infected guinea pigs; format: in vivo, guinea pigs (White Hartly-strain); design: concentration or dose not given beside the values; conditions: after 8 days application, non-treated 100
Pellicularia filamentosa = experiment: Antibacterial and Antifungal Activities (in Agricultural Field), MIC; format: cell-based; conditions: read-out: Minimal Inhibitory Conc. (MIC)
Phricularia oryzae = experiment: as above; format: cell-based; conditions: read-out: Minimal Inhibitory Conc. (MIC)
Candida alubicans GA-24 = experiment: Antifungal Activity (in Medicinal Field), MIC; format: cell-based; conditions: GA24; Candida alubicans GA-24; read-out: Minimal Inhibitory Conc. (MIC)
[14] = test system: Xanthomonas campestris pv. citri; experiment: Antibacterial and Antifungal Activities (in Agricultural Field), MIC; format: cell-based; conditions: read-out: Minimal Inhibitory Conc. (MIC)
Alternaria kikuchiana = experiment: as above; format: cell-based; conditions: read-out: Minimal Inhibitory Conc. (MIC)
[15] = test system: Cladosporium herbarum IAM F-517; experiment: Antifungal Activity (in Industrial Field), MIC; format: cell-based; conditions: IAMF517, read-out: Minimal Inhibitory Conc. (MIC)
Mucor spinescens IAM Mu3 = experiment: Antifungal Activity (in Industrial Field), MIC; format: cell-based; conditions: IAMMU3, read-out: Minimal Inhibitory Conc. (MIC)
[16] = test system: Serratia marcescens MB-3848; experiment: Antibacterial Activity (in medicinal field), MIC; format: cell-based; conditions: MB3848, read-out: Minimal Inhibitory Conc. (MIC)
Diaporithe citri = experiment: Antibacterial and Antifungal Activities (in Agricultural Field), MIC; format: cell-based; conditions: read-out: Minimal Inhibitory Conc. (MIC)
[17] = test system: Aspergillus fumigatus IAM 2621; experiment: Antifungal Activity (in Industrial Field), MIC; format: cell-based; conditions: IAM2621, read-out: Minimal Inhibitory Conc. (MIC)
[18] = test system: Trichoderma T-1 ATCC 9645; experiment: Antifungal Activity (in Industrial Field), MIC; format: cell-based; conditions: ATCC9645, read-out: Minimal Inhibitory Conc. (MIC)
[19] = test system: Colletotrichum lagenarium; experiment: Antibacterial and Antifungal Activities (in Agricultural Field), MIC; format: cell-based; conditions: Colletotrichum orbiculare, read-out: Minimal Inhibitory Conc. (MIC)
[20] = test system: Aspergillus terreus PQMD 82 j; experiment: Antifungal Activity (in Industrial Field), MIC; format: cell-based; conditions: PQMD82J, read-out: Minimal Inhibitory Conc. (MIC)
Proteus vulgaris OX-19 = experiment: Antibacterial Activity (in medicinal field), MIC; format: cell-based; conditions: OX19, read-out: Minimal Inhibitory Conc. (MIC)
[21] = test system: Staphylococcus aureus 209P JC-1; experiment: Antibacterial Activity (in medicinal field), MIC; format: cell-based; conditions: Staphylococcus aureus, 209P, read-out: Minimal Inhibitory Conc. (MIC)
[22] = test system: Trichophyton metagrophytes 530324; experiment: Antifungal Activity (in Medicinal Field), MIC; format: cell-based; conditions: Trichophyton metagrophytes 530324; read-out: Minimal Inhibitory Conc. (MIC)
[23] = test system: Cryptococcus neoformans Cr-1; experiment: Antifungal Activity (in Medicinal Field), MIC; format: cell-based; conditions: CR1, read-out: Minimal Inhibitory Conc. (MIC)
Erwinia carotovora = experiment: Antibacterial and Antifungal Activities (in Agricultural Field), MIC; format: cell-based; conditions: Pectobacterium carotovorum, read-out: Minimal Inhibitory Conc. (MIC)
[24] = test system: Pseudomonas syringae pv. tabaci; experiment: as above; format: cell-based; conditions: read-out: Minimal Inhibitory Conc. (MIC)
[25] = test system: Penicillium luteum ATCC 9644; experiment: Antifungal Activity (in Industrial Field), MIC; format: cell-based; conditions: Ascospirella lutea, ATCC9644, read-out: Minimal Inhibitory Conc. (MIC)
[26] = test system: Escherichia coli NIHJ JC-2; experiment: Antibacterial Activity (in medicinal field), MIC; format: cell-based; conditions: NIHJJC2, read-out: Minimal Inhibitory Conc. (MIC)
Glomerella cingulata = experiment: Antibacterial and Antifungal Activities (in Agricultural Field), MIC; format: cell-based; conditions: Colletotrichum gloeosporioides, read-out: Minimal Inhibitory Conc. (MIC)
[27] = test system: Shigella sonnei EW 33 Type I; experiment: Antibacterial Activity (in medicinal field), MIC; format: cell-based; conditions: EW33TYPEI; Shigella sonnei EW 33 Type I; read-out: Minimal Inhibitory Conc. (MIC)

O=[N+]([O-])c1cn(CC(I)=C(I)I)c(Cl)c1Cl [1-(2',3',3'-triiodoallyl)-2,3-dichloro-4-nitropyrrole]
MIC [1]: 31.2 µg/mL (≈ 52.1 µM)
MIC (Gibberella fujikuroi): 3.12 µg/mL (≈ 5.21 µM)
MIC [2]: 6.25 µg/mL (≈ 10.4 µM)
MIC (Botrytis cinerea): 12.5 µg/mL (≈ 20.9 µM)
MIC [3]: 1.56 µg/mL (≈ 2.61 µM)
Therapeutic Effect: Desquamation [4]: effective
Therapeutic Effect: Thickening [4]: effective
MIC [5]: 6.25 µg/mL (≈ 10.4 µM)
MIC [6]: > 50 µg/mL
MIC [7]: 0.78 µg/mL (≈ 1.3 µM)
MIC [8]: > 50 µg/mL
MIC [9]: 50 µg/mL (≈ 83.5 µM)
MIC [10]: 6.25 µg/mL (≈ 10.4 µM)
MIC [11]: 31.2 µg/mL (≈ 52.1 µM)
MIC (Cochliobolus miyabeanus): 50 µg/mL (≈ 83.5 µM)
MIC [12]: 0.19 µg/mL (≈ 0.317 µM)
Reducing Culture Positive Rate ([13]; 3 days culture): 0%
Reducing Culture Positive Rate ([13]; 5 days culture): 16.7%
Reducing Culture Positive Rate ([13]; 7 days culture): 16.7%
MIC (Pellicularia filamentosa): > 50 µg/mL
MIC (Phricularia oryzae): 6.25 µg/mL (≈ 10.4 µM)
MIC (Candida alubicans GA-24): 0.39 µg/mL (≈ 0.651 µM)
MIC [14]: > 50 µg/mL
MIC (Alternaria kikuchiana): 6.25 µg/mL (≈ 10.4 µM)
MIC [15]: 0.2 µg/mL (≈ 0.334 µM)
MIC (Mucor spinescens IAM Mu3): > 50 µg/mL
MIC [16]: 6.25 µg/mL (≈ 10.4 µM)
MIC (Diaporithe citri): 0.78 µg/mL (≈ 1.3 µM)
MIC [17]: 25 µg/mL (≈ 41.8 µM)
MIC [18]: 6.25 µg/mL (≈ 10.4 µM)
MIC [19]: 1.56 µg/mL (≈ 2.61 µM)
MIC [20]: 1.56 µg/mL (≈ 2.61 µM)
MIC (Proteus vulgaris OX-19): 6.25 µg/mL (≈ 10.4 µM)
MIC [21]: 31.2 µg/mL (≈ 52.1 µM)
MIC [22]: 0.19 µg/mL (≈ 0.317 µM)
MIC [23]: 0.19 µg/mL (≈ 0.317 µM)
MIC (Erwinia carotovora): > 50 µg/mL
MIC [24]: > 50 µg/mL
MIC [25]: 6.25 µg/mL (≈ 10.4 µM)
MIC [26]: 12.5 µg/mL (≈ 20.9 µM)
MIC (Glomerella cingulata): 1.56 µg/mL (≈ 2.61 µM)
MIC [27]: 6.25 µg/mL (≈ 10.4 µM)

O=[N+]([O-])c1cc(Cl)n(CC(I)=C(I)I)c1 [1-(2',3',3'-triiodoallyl)-2-chloro-4-nitropyrrole]
MIC [1]: 6.25 µg/mL (≈ 11.1 µM)
MIC [2]: 12.5 µg/mL (≈ 22.2 µM)
MIC [7]: 0.39 µg/mL (≈ 0.691 µM)
MIC [8]: 1.56 µg/mL (≈ 2.76 µM)
MIC [9]: 3.13 µg/mL (≈ 5.55 µM)
MIC [11]: 6.25 µg/mL (≈ 11.1 µM)
MIC [15]: 0.2 µg/mL (≈ 0.354 µM)
MIC (Mucor spinescens IAM Mu3): 3.13 µg/mL (≈ 5.55 µM)
MIC [16]: 12.5 µg/mL (≈ 22.2 µM)
MIC [17]: 0.78 µg/mL (≈ 1.38 µM)
MIC [18]: 6.25 µg/mL (≈ 11.1 µM)
MIC [20]: 1.56 µg/mL (≈ 2.76 µM)
MIC (Proteus vulgaris OX-19): 12.5 µg/mL (≈ 22.2 µM)
MIC [21]: 6.25 µg/mL (≈ 11.1 µM)
MIC [25]: 1.56 µg/mL (≈ 2.76 µM)
MIC [26]: 12.5 µg/mL (≈ 22.2 µM)
MIC [27]: 12.5 µg/mL (≈ 22.2 µM)
